Tests used:
Test in all cases: Test C greenhouse herbicide test, pre- and postemergence
Format in all cases: in vivo
soybean (Glycine max) = test system: soybean (Glycine max)
Summary of the method: (§1)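 Seeds sown in loam–sand blend treated preemergence; plants in peat-based medium sprayed postemergence at 2–18 cm (1- to 4-leaf stage); chemicals in non-phytotoxic solvent with surfactant. Greenhouse 13–15 d, then visual rating versus controls on 0–100 scale (0 no effect, 100 complete control).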

[1] = test system: barnyardgrass (Echinochloa crus-galli)
Summary of the method: as §1

[2] = test system: blackgrass (Alopecurus myosuroides)
Summary of the method: as §1

[3] = test system: crabgrass, large (large crabgrass, Digitaria sanguinalis)
Summary of the method: as §1

[4] = test system: johnsongrass (Sorghum halepense)
Summary of the method: as §1

[5] = test system: nutsedge, yellow (yellow nutsedge, Cyperus esculentus)
Summary of the method: as §1

[6] = test system: wheat (winter wheat, Triticum aestivum)
Summary of the method: as §1

[7] = test system: foxtail, giant (giant foxtail, Setaria faberii)
Summary of the method: as §1

[8] = test system: ryegrass, Italian (Italian ryegrass, Lolium multiflorum)
Summary of the method: as §1

[9] = test system: velvetleaf (Abutilon theophrasti)
Summary of the method: as §1

corn (Zea mays) = test system: corn (Zea mays)
Summary of the method: as §1

[10] = test system: galium (catchweed bedstraw, Galium aparine)
Summary of the method: as §1

[11] = Postemergence, 31 g ai/ha, 0 to 100 scale (0 no effect, 100 complete control)
[12] = Postemergence, 125 g ai/ha, scale 0 to 100, 0 is no effect, 100 is complete control
[13] = Postemergence, 250 g ai/ha, scale 0 to 100, 0 no effect, 100 complete control, 13 to 15 d
[14] = Preemergence, 62 g ai/ha, scale 0 to 100, 0 is no effect, 100 is complete control
[15] = Preemergence, 125 g ai/ha, scale 0 to 100, 0 is no effect, 100 is complete control
[16] = Preemergence, 250 g ai/ha, scale 0 to 100, 0 no effect, 100 complete control
[17] = postemergence, 62 g ai/ha, scale 0 to 100, 0 no effect, 100 complete control
[18] = Preemergence, 31 g ai/ha, scale 0 to 100, 0 is no effect, 100 is complete control

In the case of Cc1nn(C)c(=O)c(-c2c(C)sc3ccc(Br)cc23)c1O [Compound 22], the “Soybean plant response rating” value (soybean (Glycine max); [11]) is reported as 0, the “Plant response rating, Soybean” value (soybean (Glycine max); [12]) is reported as 0 and the “Plant response rating, Soybean” value (soybean (Glycine max); [13]) is reported as 0. For the same compound, the “Plant response rating, Soybean” value (soybean (Glycine max); [14]) was 0, the “Plant response rating, Soybean” value (soybean (Glycine max); [15]) was 0 and the “Soybean plant response rating” value (soybean (Glycine max); [16]) was 5. For the same compound, the “Soybean plant response rating” value (soybean (Glycine max); [17]) was 0, the “Barnyardgrass plant response rating” value [1, 11] was 5 and the “Plant response rating, Barnyardgrass” value [1, 12] was 10. For the same compound, the “Plant response rating, Barnyardgrass” value [1, 13] was 15, the “Plant response rating, Barnyardgrass” value [1, 18] was 5 and the “Plant response rating, Barnyardgrass” value [1, 14] was 5. The “Plant response rating, Barnyardgrass” value [1, 15] was 5, the “Barnyardgrass plant response rating” value [1, 16] was 60 and the “Barnyardgrass plant response rating” value [1, 17] was 5. The “Blackgrass plant response rating” value [2, 11] was 0, the “Plant response rating, Blackgrass” value [2, 12] was 20 and the “Plant response rating, Blackgrass” value [2, 13] was 20. For the same compound, the “Plant response rating, Blackgrass” value [2, 18] was 5, the “Plant response rating, Blackgrass” value [2, 14] was 20 and the “Plant response rating, Blackgrass” value [2, 15] was 40. The “Blackgrass plant response rating” value [2, 16] was 45, the “Blackgrass plant response rating” value [2, 17] was 0 and the “Crabgrass, Large plant response rating” value [3, 11] was 0. For the same compound, the “Plant response rating, Crabgrass, Large” value [3, 12] was 5, the “Plant response rating, Crabgrass, Large” value [3, 13] was 5 and the “Plant response rating, Crabgrass, Large” value [3, 18] was 0. The “Plant response rating, Crabgrass, Large” value [3, 14] was 0, the “Plant response rating, Crabgrass, Large” value [3, 15] was 0 and the “Crabgrass, Large plant response rating” value [3, 16] was 35. For the same compound, the “Crabgrass, Large plant response rating” value [3, 17] was 5, the “Johnsongrass plant response rating” value [4, 11] was 5 and the “Plant response rating, Johnsongrass” value [4, 12] was 5. The “Plant response rating, Johnsongrass” value [4, 13] was 5, the “Plant response rating, Johnsongrass” value [4, 18] was 0 and the “Plant response rating, Johnsongrass” value [4, 14] was 0. For the same compound, the “Plant response rating, Johnsongrass” value [4, 15] was 0, the “Johnsongrass plant response rating” value [4, 16] was 0 and the “Johnsongrass plant response rating” value [4, 17] was 5. For the same compound, the “Nutsedge, Yellow plant response rating” value [5, 11] was 35, the “Plant response rating, Nutsedge, Yellow” value [5, 12] was 65 and the “Plant response rating, Nutsedge, Yellow” value [5, 13] was 65. The “Plant response rating, Nutsedge, Yellow” value [5, 18] was 55, the “Plant response rating, Nutsedge, Yellow” value [5, 14] was 45 and the “Plant response rating, Nutsedge, Yellow” value [5, 15] was 70. For the same compound, the “Nutsedge, Yellow plant response rating” value [5, 16] was 70, the “Nutsedge, Yellow plant response rating” value [5, 17] was 50 and the “Wheat plant response rating” value [6, 11] was 0. For the same compound, the “Plant response rating, Wheat” value [6, 12] was 5, the “Plant response rating, Wheat” value [6, 13] was 0 and the “Plant response rating, Wheat” value [6, 14] was 0. The “Plant response rating, Wheat” value [6, 15] was 0, the “Wheat plant response rating” value [6, 16] was 0 and the “Wheat plant response rating” value [6, 17] was 0. For the same compound, the “Foxtail, Giant plant response rating” value [7, 11] was 10, the “Plant response rating, Foxtail, Giant” value [7, 12] was 40 and the “Plant response rating, Foxtail, Giant” value [7, 13] was 35. The “Plant response rating, Foxtail, Giant” value [7, 18] was 5, the “Plant response rating, Foxtail, Giant” value [7, 14] was 15 and the “Plant response rating, Foxtail, Giant” value [7, 15] was 55. For the same compound, the “Foxtail, Giant plant response rating” value [7, 16] was 85, the “Foxtail, Giant plant response rating” value [7, 17] was 15 and the “Ryegrass, Italian plant response rating” value [8, 11] was 60. For the same compound, the “Plant response rating, Ryegrass, Italian” value [8, 12] was 90, the “Plant response rating, Ryegrass, Italian” value [8, 13] was 90 and the “Plant response rating, Ryegrass, Italian” value [8, 18] was 90. The “Plant response rating, Ryegrass, Italian” value [8, 14] was 90, the “Plant response rating, Ryegrass, Italian” value [8, 15] was 95 and the “Ryegrass, Italian plant response rating” value [8, 16] was 95. For the same compound, the “Ryegrass, Italian plant response rating” value [8, 17] was 70, the “Velvetleaf plant response rating” value [9, 11] was 20 and the “Plant response rating, Velvetleaf” value [9, 12] was 80. The “Plant response rating, Velvetleaf” value [9, 13] was 80, the “Plant response rating, Velvetleaf” value [9, 14] was 60 and the “Plant response rating, Velvetleaf” value [9, 15] was 75. The “Velvetleaf plant response rating” value [9, 16] was 98, the “Velvetleaf plant response rating” value [9, 17] was 50 and the “Corn plant response rating” value (corn (Zea mays); [11]) was 0. The “Plant response rating, Corn” value (corn (Zea mays); [12]) was 5, the “Plant response rating, Corn” value (corn (Zea mays); [13]) was 5 and the “Plant response rating, Corn” value (corn (Zea mays); [18]) was 0. The “Plant response rating, Corn” value (corn (Zea mays); [14]) was 0, the “Plant response rating, Corn” value (corn (Zea mays); [15]) was 0 and the “Corn plant response rating” value (corn (Zea mays); [16]) was 35. For the same compound, the “Corn plant response rating” value (corn (Zea mays); [17]) was 5, the “Galium plant response rating” value [10, 11] was 90 and the “Plant response rating, Galium” value [10, 12] was 95. For the same compound, the “Plant response rating, Galium” value [10, 13] was 95, the “Plant response rating, Galium” value [10, 18] was 90 and the “Plant response rating, Galium” value [10, 14] was 90. For the same compound, the “Plant response rating, Galium” value [10, 15] was 95, the “Galium plant response rating” value [10, 16] was 95 and the “Galium plant response rating” value [10, 17] was 90.
